Experimental data reported in patent publication US11358952B2, “Substituted 4-aminoisoindoline-1,3-dione compounds, compositions thereof, and methods of treatment therewith” (Celgene Corporation, priority 2018, dated 2022).

The molecules below were run on SU-DHL-4 cell line (assay: SU-DHL-4 cell proliferation assay (Cell Titer-Glo viability)). Settings: Homo sapiens; cell viability IC50 activity level, DLBCL cell line SU-DHL-4, 120 hours post-treatment; read-out: SU-DHL-4 Act.
Assay type: cell-based
Summary of the method: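 SU-DHL-4 cells (500/well, RPMI-1640 + 10% FBS) exposed to 20-point compound dilutions (0.5 nM–10 μM, 0.1% DMSO) for 120 h at 37°C, 5% CO2. Viability measured by Cell Titer-Glo luminescence at t0 and at 120 h. IC50 is the concentration giving 50% of DMSO control, from a four-parameter logistic fit.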

Compared with Cc1cc(CNc2cccc3c2C(=O)N(C2CCC(=O)NC2=O)C3=O)ccc1CN1CCN(c2ccnc(C(N)=O)c2)CC1 (stereo not drawn) [Cpd 190, 4-(4-(4-((2-(2,6-dioxopiperidin-3-yl)-1,3-dioxoisoindolin-4-ylamino)methyl)-2-methylbenzyl)piperazin-1-yl)picolinamide], NC(=O)c1cccc(N2CCN(Cc3ccc(CNc4cccc5c4C(=O)N(C4CCC(=O)NC4=O)C5=O)cc3F)CC2)n1 (stereo not drawn) [Cpd 183, 6-(4-(4-((2-(2,6-dioxopiperidin-3-yl)-1,3-dioxoisoindolin-4-ylamino)methyl)-2-fluorobenzyl)piperazin-1-yl)picolinamide] is lower in IC50: 200 to 500 nM for the first, < 200 nM for the second. The second is the more potent here.

O=C1CCC(N2C(=O)c3cccc(NCc4ccc(CN5CCC(O)(C6CC6)CC5)cc4)c3C2=O)C(=O)N1 (stereo not drawn) [Cpd 131, 4-(4-((4-cyclopropyl-4-hydroxypiperidin-1-yl)methyl)benzylamino)-2-(2,6-dioxopiperidin-3-yl)isoindoline-1,3-dione] and CCC1CCN(Cc2ccc(CNc3cccc4c3C(=O)N(C3CCC(=O)NC3=O)C4=O)cc2)CC1 (stereo not drawn) [Cpd 22, 2-(2,6-dioxopiperidin-3-yl)-4-(4-((4-ethylpiperidin-1-yl)methyl)benzylamino)isoindoline-1,3-dione] fall in the same range of IC50: 200 to 500 nM for the first, 200 to 500 nM for the second.

First: CN(C)C(=O)c1ccc(N2CCN(Cc3ccc(CNc4cccc5c4C(=O)N(C4CCC(=O)NC4=O)C5=O)c(F)c3)CC2)cn1 (stereo not drawn) [Cpd 140, 5-(4-(4-((2-(2,6-dioxopiperidin-3-yl)-1,3-dioxoisoindolin-4-ylamino)methyl)-3-fluorobenzyl)piperazin-1-yl)-N,N-dimethylpicolinamide]
Second: CC1(C)CN(c2ccc(C(N)=O)nc2)CCN1Cc1ccc(CNc2cccc3c2C(=O)N(C2CCC(=O)NC2=O)C3=O)cc1 (stereo not drawn) [Cpd 86, 5-(4-(4-((2-(2,6-dioxopiperidin-3-yl)-1,3-dioxoisoindolin-4-ylamino)methyl)benzyl)-3,3-dimethylpiperazin-1-yl)picolinamide]
The IC50 of the first is higher: 200 to 500 nM for the first, < 200 nM for the second. The second is the more potent here.

CC1(C)CCC2(CCN(Cc3ccc(CNc4cccc5c4C(=O)N(C4CCC(=O)NC4=O)C5=O)cc3F)CC2)O1 (stereo not drawn) [Cpd 148, 4-(4-((2,2-dimethyl-1-oxa-8-azaspiro[4.5]decan-8-yl)methyl)-3-fluorobenzylamino)-2-(2,6-dioxopiperidin-3-yl)isoindoline-1,3-dione] and CCOC1(C)CCN(Cc2ccc(CNc3cccc4c3C(=O)N(C3CCC(=O)NC3=O)C4=O)c(F)c2)CC1 (stereo not drawn) [Cpd 158, 2-(2,6-dioxopiperidin-3-yl)-4-(4-((4-ethoxy-4-methylpiperidin-1-yl)methyl)-2-fluorobenzylamino)isoindoline-1,3-dione] cannot be ordered by IC50: < 200 nM for the first, < 200 nM for the second.

Compared with CC(C)C1CN(Cc2ccc(CNc3cccc4c3C(=O)N(C3CCC(=O)NC3=O)C4=O)cc2)C1 (stereo not drawn) [Cpd 113, 2-(2,6-dioxopiperidin-3-yl)-4-(4-((3-isopropylazetidin-1-yl)methyl)benzylamino)isoindoline-1,3-dione], COC1CC2CCC(C1)N2Cc1ccc(CNc2cccc3c2C(=O)N(C2CCC(=O)NC2=O)C3=O)cc1 [Cpd 35, 2-(2,6-dioxopiperidin-3-yl)-4-(4-(((1R,3r,5S)-3-methoxy-8-azabicyclo[3.2.1]octan-8-yl)methyl)benzylamino)isoindoline-1,3-dione] is higher in IC50: 200 to 500 nM for the first, 751 to 1000 nM for the second. The first is the more potent here.

First: Cc1cc(CNc2cccc3c2C(=O)N(C2CCC(=O)NC2=O)C3=O)ccc1CN1CC(Oc2ccc(C#N)cc2)C1 (stereo not drawn) [Cpd 83, 4-(1-(4-((2-(2,6-dioxopiperidin-3-yl)-1,3-dioxoisoindolin-4-ylamino)methyl)-2-methylbenzyl)azetidin-3-yloxy)benzonitrile]
Second: O=C1CCC(N2C(=O)c3cccc(NCc4ccc(CN5CCC(OCC6CC6)CC5)cc4)c3C2=O)C(=O)N1 (stereo not drawn) [Cpd 127, 4-(4-((4-(cyclopropylmethoxy)piperidin-1-yl)methyl)benzylamino)-2-(2,6-dioxopiperidin-3-yl)isoindoline-1,3-dione]
The IC50 of the first is lower: < 200 nM for the first, 751 to 1000 nM for the second.
